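Assay format: 96-well plates, 48-hour exposure. At the TGI there is no net growth.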
How the values were obtained:
Assay in all cases: NCI anticancer screen, dose series, 48 h
COLO 205 colon = system: COLO 205 colon
OVCAR-8 ovarian = system: OVCAR-8 ovarian
ACHN renal = system: ACHN renal
KM20L2 colon = system: KM20L2 colon
XF 498 CNS = system: XF 498 CNS
SF-539 CNS = system: SF-539 CNS
SN12C renal = system: SN12C renal
SNB-75 CNS = system: SNB-75 CNS
OVCAR-4 ovarian = system: OVCAR-4 ovarian
SF-295 CNS = system: SF-295 CNS
OVCAR-3 ovarian = system: OVCAR-3 ovarian
UACC-257 melanoma = system: UACC-257 melanoma
CCRF-CEM leukemia = system: CCRF-CEM leukemia
T-47D breast = system: T-47D breast
RPMI-8226 leukemia = system: RPMI-8226 leukemia
RXF 393 renal = system: RXF 393 renal
IGROV1 ovarian = system: IGROV1 ovarian
HCT-116 colon = system: HCT-116 colon
HCT-15 colon = system: HCT-15 colon
MOLT-4 leukemia = system: MOLT-4 leukemia
SK-MEL-5 melanoma = system: SK-MEL-5 melanoma
RXF-631 renal = system: RXF-631 renal
SK-MEL-28 melanoma = system: SK-MEL-28 melanoma
HCC-2998 colon = system: HCC-2998 colon
SK-MEL-2 melanoma = system: SK-MEL-2 melanoma
SW-620 colon = system: SW-620 colon
NCI-H226 lung = system: NCI-H226 lung
MALME-3M melanoma = system: MALME-3M melanoma
786-0 renal = system: 786-0 renal
M19-MEL melanoma = system: M19-MEL melanoma
DMS 114 small cell lung = system: DMS 114 small cell lung
BT-549 breast = system: BT-549 breast
DU-145 prostate = system: DU-145 prostate
HT29 colon = system: HT29 colon
MCF7 breast = system: MCF7 breast
LOX IMVI melanoma = system: LOX IMVI melanoma
HOP-18 NSCLC = system: HOP-18 NSCLC
DLD-1 colon = system: DLD-1 colon
A498 renal = system: A498 renal
UO-31 renal = system: UO-31 renal
MDA-MB-435 = system: MDA-MB-435
KM12 colon = system: KM12 colon
K-562 leukemia = system: K-562 leukemia
NCI-H522 lung = system: NCI-H522 lung
TK-10 renal = system: TK-10 renal
SR leukemia = system: SR leukemia
SNB-19 CNS = system: SNB-19 CNS
SNB-78 CNS = system: SNB-78 CNS
HL-60(TB) leukemia = system: HL-60(TB) leukemia
UACC-62 melanoma = system: UACC-62 melanoma
A549 NSCLC = system: A549 NSCLC
SF-268 CNS = system: SF-268 CNS
SK-OV-3 ovarian = system: SK-OV-3 ovarian
HOP-92 NSCLC = system: HOP-92 NSCLC
EKVX NSCLC = system: EKVX NSCLC
U251 CNS = system: U251 CNS
HOP-62 NSCLC = system: HOP-62 NSCLC
LXFL 529 NSCLC = system: LXFL 529 NSCLC
DMS 273 small cell lung = system: DMS 273 small cell lung
PC-3 prostate = system: PC-3 prostate
CAKI-1 renal = system: CAKI-1 renal
NCI-H460 lung = system: NCI-H460 lung
NCI-H23 lung = system: NCI-H23 lung
OVCAR-5 ovarian = system: OVCAR-5 ovarian
M14 melanoma = system: M14 melanoma

In the case of `CCOC(=O)c1c(CN2CCNCC2)nc2ccc(Cl)cc2c1-c1ccccc1`, the TGI (COLO 205 colon) is reported as 4.16 µM, the TGI (OVCAR-8 ovarian) is reported as 11.7 µM and the TGI (ACHN renal) is reported as 12.9 µM. For the same compound, the TGI (KM20L2 colon) was 6.87 µM, the TGI (XF 498 CNS) was 9.43 µM and the TGI (SF-539 CNS) was 7.56 µM. It also gave a TGI (SN12C renal) of 15 µM, a TGI (SNB-75 CNS) of 9.5 µM and a TGI (OVCAR-4 ovarian) of 12.3 µM. It also gave a TGI (SF-295 CNS) of 5.97 µM, a TGI (OVCAR-3 ovarian) of 20.2 µM and a TGI (UACC-257 melanoma) of 3.62 µM. The TGI (CCRF-CEM leukemia) was 8.21 µM, the TGI (T-47D breast) was 20.6 µM and the TGI (RPMI-8226 leukemia) was 4.89 µM. It also gave a TGI (RXF 393 renal) of 10.7 µM, a TGI (IGROV1 ovarian) of 17.1 µM and a TGI (HCT-116 colon) of 10.2 µM. For the same compound, the TGI (HCT-15 colon) was 10.5 µM, the TGI (MOLT-4 leukemia) was 4.57 µM and the TGI (SK-MEL-5 melanoma) was 2.16 µM. The TGI (RXF-631 renal) was 6.68 µM, the TGI (SK-MEL-28 melanoma) was 7.04 µM and the TGI (HCC-2998 colon) was 3 µM. It also gave a TGI (SK-MEL-2 melanoma) of 3.36 µM, a TGI (SW-620 colon) of 4.87 µM and a TGI (NCI-H226 lung) of 33.4 µM. The TGI (MALME-3M melanoma) was 3.56 µM, the TGI (786-0 renal) was 3.15 µM and the TGI (M19-MEL melanoma) was 3.61 µM. The TGI (DMS 114 small cell lung) was 4.05 µM, the TGI (BT-549 breast) was 27 µM and the TGI (DU-145 prostate) was 31.9 µM. It also gave a TGI (HT29 colon) of 3.68 µM, a TGI (MCF7 breast) of 28.6 µM and a TGI (LOX IMVI melanoma) of 3.26 µM. The TGI (HOP-18 NSCLC) was 15.5 µM, the TGI (DLD-1 colon) was 10.1 µM and the TGI (A498 renal) was 23.4 µM. For the same compound, the TGI (UO-31 renal) was 9.69 µM, the TGI (MDA-MB-435) was 8.21 µM and the TGI (KM12 colon) was 7.18 µM. The TGI (K-562 leukemia) was 7.03 µM, the TGI (NCI-H522 lung) was 9.41 µM and the TGI (TK-10 renal) was 10.8 µM. The TGI (SR leukemia) was 4.51 µM, the TGI (SNB-19 CNS) was 28.4 µM and the TGI (SNB-78 CNS) was 24.7 µM. For the same compound, the TGI (HL-60(TB) leukemia) was 4.38 µM, the TGI (UACC-62 melanoma) was 3.76 µM and the TGI (A549 NSCLC) was 17.7 µM. It also gave a TGI (SF-268 CNS) of 17.9 µM, a TGI (SK-OV-3 ovarian) of 21.3 µM and a TGI (HOP-92 NSCLC) of 3.16 µM. For the same compound, the TGI (EKVX NSCLC) was 23.4 µM, the TGI (U251 CNS) was 26.7 µM and the TGI (HOP-62 NSCLC) was 21.6 µM. It also gave a TGI (LXFL 529 NSCLC) of 3.2 µM, a TGI (DMS 273 small cell lung) of 5.56 µM and a TGI (PC-3 prostate) of 12.4 µM. The TGI (CAKI-1 renal) was 8.11 µM, the TGI (NCI-H460 lung) was 6.32 µM and the TGI (NCI-H23 lung) was 25.7 µM. For the same compound, the TGI (OVCAR-5 ovarian) was 36 µM and the TGI (M14 melanoma) was 3.85 µM.

— PubChem BioAssay (NCI)
